According to patent US20260250257A1, “ANTIBACTERIAL AND SYNERGISTIC ACTIVE COMPOUND AND USE THEREOF” (EAST CHINA UNIVERSITY OF SCIENCE AND TECHNOLOGY, priority 2023, published 2026):

Assays:
Assay type in all cases: cell-based
[1] = tested on: ATCC13883 strain (Klebsiella pneumoniae); experiment: Checkerboard antibacterial synergistic activity test with polymyxin E (FIC); design: key: FIC≤0.5 synergy; 0.5–1 additive; 1–2 indifferent; ≥2 antagonism; conditions: combined with polymyxin E
Experimental: (§1) Polymyxin E was diluted in sterile MH broth medium to concentrations of 16, 8, 4, 2, 1, 0.5, 0.25, 0.125, 0.0625, 0.031, and 0.015 μg/ml, and the drug to be tested was diluted to concentrations of 256, 128, 64, 32, 16, 8, and 4 μg/ml. According to the checkerboard method, combinations of the drug to be tested and polymyxin at different concentrations in ascending order were placed into a 96-well plate, and corresponding blank control groups were set up. 50 μl of the drug solution was added to each well, then 100 μl of bacterial liquid was added, and incubated in a 37° C. incubator for 16 hours. […] Calculation and judgment criteria:
(§2) Fractional Inhibitory Concentration (FIC) is calculated as follows: […]
(§3) Judgment criteria: FIC≤0.5: synergistic effect; 0.5<FIC<1: additive effect; 1<FIC<2: indifferent effect; FIC≥2: antagonistic effect.
(§4) In the table: ATCC19606 strain is Acinetobacter baumannii, ATCC25922 strain is Escherichia coli, ATCC13883 strain is Klebsiella pneumoniae, ATCC9027 strain is Pseudomonas aeruginosa. All four strains were purchased from ATCC.

[2] = tested on: ATCC19606 strain (Acinetobacter baumannii); experiment: as above; design: key: FIC≤0.5 synergy; 0.5–1 additive; 1–2 indifferent; ≥2 antagonism; conditions: combined with polymyxin E
Experimental: as §1, §2, §3, §4

[3] = tested on: ATCC25922 strain (Escherichia coli); experiment: as above; design: key: FIC≤0.5 synergy; 0.5–1 additive; 1–2 indifferent; ≥2 antagonism; conditions: combined with polymyxin E
Experimental: as §1, §2, §3, §4

[4] = tested on: ATCC9027 strain (Pseudomonas aeruginosa); experiment: as above; design: key: FIC≤0.5 synergy; 0.5–1 additive; 1–2 indifferent; ≥2 antagonism; conditions: combined with polymyxin E
Experimental: as §1, §2, §3, §4

[5] = tested on: ATCC13883 strain (Klebsiella pneumoniae); experiment: Broth microdilution, antibacterial activity of the compound used alone
Text: (§5) The broth microdilution method was used to test the antibacterial effects of the compounds of the present invention against various Gram-negative bacterial strains when used alone.

[6] = tested on: ATCC19606 strain (Acinetobacter baumannii); experiment: as above
Text: as §5

[7] = tested on: ATCC25922 strain (Escherichia coli); experiment: as above
Text: as §5

[8] = tested on: ATCC9027 strain (Pseudomonas aeruginosa); experiment: as above
Text: as §5

Row | Compound | Synergistic activity (FIC value) ATCC13883 [1] | Synergistic activity (FIC value) ATCC19606 [2] | Synergistic activity (FIC value) ATCC25922 [3] | Synergistic activity (FIC value) ATCC9027 [4] | Antibacterial activity of the compound of Formula I, ATCC13883 [5] | Antibacterial activity of the compound of Formula I, ATCC19606 [6] | Antibacterial activity of the compound of Formula I, ATCC25922 [7] | Antibacterial activity of the compound of Formula I, ATCC9027 [8]
1 | CC(C)c1ccc(-c2csc(N=C(N)N)n2)cc1 [Compound I-17] | 0.25 | 0.28 | 0.5 | 0.63 | 256 µg/mL | 256 µg/mL | 256 µg/mL | 256 µg/mL
2 | CC(C)c1cc(-c2c[se]c(N=C(N)N)n2)cc(C(C)C)c1 [Compound I-18] | 0.33 | 0.15 | 0.39 | 0.62 | 256 µg/mL | 256 µg/mL | 256 µg/mL | 256 µg/mL
3 | CC(C)c1cc(-c2coc(N=C(N)N)n2)cc(C(C)C)c1O [Compound I-19] | 0.31 | 0.12 | 0.38 | 0.31 | 256 µg/mL | 256 µg/mL | 256 µg/mL | 256 µg/mL
4 | NC(N)=Nc1nc(-c2ccccc2[N+](=O)[O-])c[nH]1 [Compound I-20] | 0.63 | 0.75 | 0.5 | 0.56 | 256 µg/mL | 256 µg/mL | 256 µg/mL | 256 µg/mL
5 | N#Cc1cccc(-c2csc(N=C(N)N)n2)c1 [Compound I-21] | 0.52 | 0.52 | 0.63 | 1.25 | 128 µg/mL | 256 µg/mL | 128 µg/mL | 64 µg/mL
6 | C[Si](C)(C)c1ccc(-c2csc(N=C(N)N)n2)cc1 [Compound I-22] | 0.38 | 0.75 | 0.5 | 0.63 | 256 µg/mL | 256 µg/mL | 256 µg/mL | 256 µg/mL
7 | CNc1cc(C)cc(-c2csc(N=C(N)N)n2)c1 [Compound I-23] | 0.52 | 0.52 | 0.63 | 1.25 | 256 µg/mL | 256 µg/mL | 256 µg/mL | 256 µg/mL
8 | CC(=O)c1ccc(-c2csc(N=C(N)N)n2)cc1 [Compound I-24] | 1.25 | 0.5 | 1.25 | 1.25 | 256 µg/mL | 256 µg/mL | 256 µg/mL | 256 µg/mL
9 | CCOC(=O)c1ccc(-c2c[nH]c(N=C(N)N)n2)cc1 [Compound I-25] | 0.31 | 0.13 | 0.38 | 0.53 | 256 µg/mL | 256 µg/mL | 256 µg/mL | 256 µg/mL
10 | CSc1ccccc1-c1csc(N=C(N)N)n1 [Compound I-26] | 1.25 | 0.5 | 0.63 | 1.25 | 256 µg/mL | 256 µg/mL | 256 µg/mL | 256 µg/mL
11 | C[S+]([O-])c1cccc(-c2csc(N=C(N)N)n2)c1 (stereo not shown) [Compound I-27] | 1.25 | 0.51 | 1.25 | 1.25 | 256 µg/mL | 256 µg/mL | 256 µg/mL | 256 µg/mL
12 | CS(=O)(=O)Oc1ccc(-c2coc(N=C(N)N)n2)cc1 [Compound I-28] | 1.25 | 1.25 | 1.25 | 0.51 | 256 µg/mL | 256 µg/mL | 256 µg/mL | 256 µg/mL
13 | NC(N)=Nc1nc(-c2ccc(OS(N)(=O)=O)cc2)co1 [Compound I-29] | 1.25 | 0.26 | 1.25 | 1.25 | 256 µg/mL | 256 µg/mL | 256 µg/mL | 256 µg/mL
14 | CC(=O)N(C)c1cccc(-c2csc(N=C(N)N)n2)c1 [Compound I-30] | 0.19 | 0.13 | 0.52 | 1.25 | 256 µg/mL | 256 µg/mL | 256 µg/mL | 256 µg/mL
